Source: US20260159519A1, “IMIDAZOPYRIDAZINE SUBSTITUTED BENZENE RING DERIVATIVE, PREPARATION METHOD, PHARMACEUTICAL COMPOSITION AND USE” (SHANGHAI SIMR BIOTECHNOLOGY CO., LTD., priority 2022, published 2026)
Read-outs that look alike come from different tables or passages of the source.

What was measured:
[1] = biological target: T1, human α2-GABAA receptor (BZD site, membrane protein of HEK293 cells) (Homo sapiens, UniProt P18507+P47869); assay: Radioligand competitive binding assay (3H-flunitrazepam) at the BZD site of the α2-GABAA receptor
T1 construct: expressed in transfected cells
From the text: (§1) α subunit, β subunit, and γ subunit are essential for the formation of a complete and functional GABAA receptor. In this example of the present disclosure, HEK293 cells stably expressing the human α1-GABAA receptor (α1-GABAAR) and α2-GABAA receptor (α2-GABAAR) were constructed and separately selected using the lipofection method (Felgner, P. L., et al. Proceedings of the National Academy of Sciences, 1987, 84: 7413-7417). The α1-GABAAR-HEK293 cell model simultaneously expressed the α1 subunit (for protein sequence, see GenBank accession No.: NM_000806.5), the […] (for protein sequence, see GenBank accession No.: NM_000814.5), and the […] (for protein sequence, see GenBank accession No.: NM_000816.3). The α2-GABAAR-HEK293 cell model simultaneously expressed the α2 subunit (for protein sequence, see GenBank accession No.: NM_000807.4), the β3 subunit (for protein sequence, see GenBank accession No.: NM_000814.5), and the γ2 subunit (for protein sequence, see GenBank accession No.: NM_000816.3).
(§2) The above cell lines were subcultured. The α2-GABAAR-HEK293 cells were expanded for testing the affinity of compounds to the benzodiazepine (BZD) site of the GABAA receptor. During the passage process, some of the α1-GABAAR-HEK293 cells and α2-GABAAR-HEK293 cells were suspended and plated on a slide pre-treated with Poly-D-Lysine for electrophysiological testing (method referenced from patent CN107344936A, paragraph 0586).
The affinity of the compounds for the α2-GABAA receptor was determined by competing for the binding of ^3H-flunitrazepam (isotope ^3H-labelled flunitrazepam) to the BZD site on the membrane protein of HEK293 cells stably expressing the human α2-GABAAR.
Membrane preparation: Cells were suspended in 50 mM Tris-HCl buffer (pH=7.4), homogenized 10 times for 20 seconds with a homogenizer on ice, and centrifuged at 1000 g for 10 minutes at 4° C. The supernatant was taken, and the above steps were repeated. The supernatant was centrifuged at 4° C. (33800 g; Thermo, rotor: A27-8×50) for 60 minutes. The precipitate was resuspended in Tris buffer (50 mM Tris-HCl, 10 mM MgCl2, 0.5 mM EDTA, and 10% glycerol). The protein content was determined (BCA (bicinchoninic acid) protein quantification assay based on copper ion reduction, with a BCA kit purchased from Pierce (Annoron (Beijing) Biotechnology Co., Ltd.)), and 1 mL aliquots were prepared and stored at −80° C.
Radioligand competitive binding assay: This assay was performed in a 200 μL system (96-well plate) containing 100 μL of cell membrane. The concentration of ^3H-flunitrazepam was 1 nM, and the concentrations of the test compounds were in the range of […]. Flumazenil was used as a control. 1 μL of 2 mM flumazenil (final […]) was added to each low signal control (low control, LC) well, and 1 μL of dimethyl sulfoxide was added to each high signal control (high control, HC) well. The final concentration of target membrane protein was […]. All sample stock solutions of test compounds were 10 mM dimethyl sulfoxide solutions. All the samples were diluted to a concentration of 0.2 mM with dimethyl sulfoxide, and then subjected to a 4-fold serial dilution for a total of 8 working concentration gradients. The 96-well plate was sealed with a sealing membrane and then incubated on a shaker at room temperature for 1 hour. Meanwhile, a GF/C filter plate was soaked in plate soaking buffer (0.3% PEI (polyethyleneimine, purchased from Sigma-Aldrich, model: P314), stored at 4° C.) for at least 0.5 hours. After the binding incubation was completed, the cells were harvested onto the GF/C filter plate using a cell harvester and washed four times with plate washing buffer (50 mM Tris-HCl, pH 7.4, stored at 4° C.). After drying in an oven at 50° C. for 1 hour, the dried GF/C filter plate was bottom-sealed. The residual radioactivity on the filter membrane was detected by liquid scintillation counting.

[2] = biological target: T2, human α1-GABAA receptor (α1-GABAAR-HEK293 cells) (Homo sapiens, UniProt P14867+P18507); assay: Whole-cell patch-clamp electrophysiology, positive allosteric modulatory activity on α1-GABAA receptor; assay type: cell-based; conditions: read-out: α1-GABAA positive allosteric modulatory activity
T2 construct: expressed in transfected cells
From the text: as §1, §2
(§3) The positive regulatory activity of the test drugs on the α1-GABAA receptor and the α2-GABAA receptor was detected by the electrophysiological method. The specific method was as follows:
(§4) Compound concentration setting: The final concentration of the compounds used for screening was 100 nM. For cell lines expressing the α1-GABAA receptor, the concentration of GABA was 0.05 to 0.07 μM (approximately EC2-4). For cell lines expressing the α2-GABAA receptor, the concentration of GABA was 0.10 to 0.11 μM (approximately EC7-8). Electrophysiological testing was performed using the whole-cell patch-clamp technique, which can refer to the method reported in the literature (Nickolls, S. A., et al. British Journal of Pharmacology, 2018, 175: 708-725). The composition of the extracellular solution (ECS) for electrophysiology was as follows: 150 mM NaCl, 5 mM KCl, 2.5 mM CaCl2, 1 mM MgCl2, 10 mM HEPES, and 10 mM glucose (pH 7.4). The formulation of the intracellular solution (ICS) for electrophysiology was as follows: 140 mM CsCl, 11 mM EGTA, 10 mM HEPES, 2 mM CaCl2, 1 mM MgCl2, 4 mM MgATP, and 2 mM TEA (pH 7.3). GABA (γ-aminobutyric acid) powder was prepared into a mother liquor with pure water, which was then diluted in ECS. The compound was first prepared into a 4 mM mother liquor with dimethyl sulfoxide, which was then gradually diluted in the corresponding concentration of GABA-ECS. The solutions were freshly prepared prior to electrophysiological testing.
(§5) Electrophysiological signal acquisition was performed using an EPC 10 amplifier and PatchMaster software (HEKA) or an Axon 700B amplifier and Clampex software (AXON). The recording electrode was made through a drawing process using borosilicate glass, with an electrode resistance of 4 to 6 MΩ. Extracellular administration was performed using the ALA-VC-8PG™ system. A single, independently growing cell was selected. After the glass electrode formed a good seal with the cell, the membrane was ruptured to form the whole-cell configuration. The cell membrane potential was clamped at −60 mV and recorded in Gap-free mode. During the test, the extracellular solution was first applied extracellularly for approximately 20 seconds. After the baseline (Iprebaseline) stabilized, the extracellular solution was switched to GABA-ECS. At this point, the current induced by GABA (Igaba) could be detected. After approximately 10 to 20 seconds, when the current stabilized, the extracellular solution was switched to a mixture of the compound and GABA-ECS. […]

[3] = biological target: T3, human α2-GABAA receptor (α2-GABAAR-HEK293 cells) (Homo sapiens, UniProt P18507+P47869); assay: Whole-cell patch-clamp electrophysiology, positive allosteric modulatory activity on α2-GABAA receptor; assay type: cell-based; conditions: read-out: α2-GABAA positive allosteric modulatory activity
T3 construct: expressed in transfected cells
From the text: as §1, §2, §3, §4, §5

[4] = competition with 1 nM 3H-flunitrazepam, Ki calculated from IC50, read-out: α2 Ki

SMILES	Ki [1, 4] [nM]	activation at 0.1 µM [2] [%]	activation at 0.1 µM [3] [%]	Ki [1] [nM]	Ki ([1]; read-out: α2 Ki, competition with 1 nM 3H-flunitrazepam, Ki calculated from IC50) [nM]
CC[C@H]1Oc2cc(-c3cc(-c4cnnc5c4ncn5CC)ccc3F)c(OC)cc2N(C)C1=O (single isomer, unassigned) [Example 8]	4.76	79	130	–	–
CCn1cnc2c(-c3ccc(F)c(-c4cc5cc(C(C)=O)c(=O)n(C)c5cc4OC)c3)cnnc21 [Example 1, 3-Acetyl-6-(5-(7-ethyl-7H-imidazo[4,5-c]pyridazin-4-yl)-2-fluorophenyl)-7-methoxy-1-methylquinolin-2(1H)-one]	6	13	151	–	–
CCn1cnc2c(-c3ccc(F)c(-c4cc5c(cc4OC)-c4c(cnn4C)CO5)c3)cnnc21 [Example 10, 7-(5-(7-Ethyl-7H-imidazo[4,5-c]pyridazin-4-yl)-2-fluorophenyl)-8-methoxy-1-methyl-1,4-dihydrochromeno[4,3-c]pyrazole]	26.9	1	98	–	–
CCn1cnc2c(-c3ccc(F)c(-c4ccc5c(nnn5CC)c4COC)c3)cnnc21 [Example 11, 7-Ethyl-4-(3-(1-ethyl-4-(methoxymethyl)-1H-benzo[d][1,2,3]triazol-5-yl)-4-fluorophenyl)-7H-imidazo[4,5-c]pyridazine]	16.4	75	97	–	–
CCn1cnc2c(-c3ccc(F)c(-c4cc5c(cc4OC)N(CCN4CCCC4)C(=O)CO5)c3)cnnc21 [Example 17, 7-(5-(7-Ethyl-7H-imidazo[4,5-c]pyridazin-4-yl)-2-fluorophenyl)-6-methoxy-4-(2-(pyrrolidin-1-yl)ethyl)-2H-benzo[b][1,4]oxazin-3(4H)-one]	–	47	125	14.4	–
CCn1cnc2c(-c3ccc(F)c(-c4cc5c(cc4OC)N(CCN4CCOCC4)C(=O)CO5)c3)cnnc21 [Example 18, 7-(5-(7-Ethyl-7H-imidazo[4,5-c]pyridazin-4-yl)-2-fluorophenyl)-6-methoxy-4-(2-morpholinoethyl)-2H-benzo[b][1,4]oxazin-3(4H)-one]	–	30	106	–	13.9
CCn1cnc2c(-c3ccc(F)c(-c4cc5c(cc4OC)N(CCN(C)C)C(=O)CO5)c3)cnnc21 [Example 22, 4-(2-(Dimethylamino)ethyl)-7-(5-(7-ethyl-7H-imidazo[4,5-c]pyridazin-4-yl)-2-fluorophenyl)-6-methoxy-2H-benzo[b][1,4]oxazin-3(4H)-one]	–	53	115	10	–

The next lines start with results.

Ki [1, 4] [nM]	activation at 0.1 µM [2] [%]	activation at 0.1 µM [3] [%]	SMILES	Ki [1] [nM]	Ki ([1]; read-out: α2 Ki, competition with 1 nM 3H-flunitrazepam, Ki calculated from IC50) [nM]
3.51	37	81	CCn1cnc2c(-c3ccc(F)c(-c4cc5cn([C@H]6CCN(C)C[C@@H]6F)nc5cc4OC)c3)cnnc21 (racemic) [Example 63, 7-Ethyl-4-(4-fluoro-3-(2-((3S,4S)-3-fluoro-1-methylpiperidin-4-yl)-6-methoxy-2H-indazol-5-yl)phenyl)-7H-imidazo[4,5-c]pyridazine]	–	–
28.2	68	142	CCn1cnc2c(-c3ccc(F)c(-c4cc5c(cc4OC)ncn5C4COC4)c3)cnnc21 (single isomer, unassigned) [Example 135, 7-Ethyl-4-(4-fluoro-3-(5-methoxy-1-(oxetan-3-yl)-1H-benzo[d]imidazol-6-yl)phenyl)-7H-imidazo[4,5-c]pyridazine]	–	–
14.5	42	114	CCn1cnc2c(-c3ccc(F)c(-c4cc5c(cc4OC)N(C)C(=O)C(COC)O5)c3)cnnc21 (single isomer, unassigned) [Example 162]	–	–
11.6	38	104	CCn1cnc2c(-c3ccc(F)c(-c4ccc5c(nnn5C)c4COC)c3)cnnc21 [Example 16, 7-Ethyl-4-(4-fluoro-3-(4-(methoxymethyl)-1-methyl-1H-benzo[d][1,2,3]triazol-5-yl)phenyl)-7H-imidazo[4,5-c]pyridazine]	–	–
8.95	48	120	CCn1cnc2c(-c3ccc(F)c(-c4cc5c(cc4OC)N(C)C(=O)C(C)O5)c3)cnnc21 (stereo not drawn) [Example 26, 7-(5-(7-Ethyl-7H-imidazo[4,5-c]pyridazin-4-yl)-2-fluorophenyl)-6-methoxy-2,4-dimethyl-2H-benzo[b][1,4]oxazin-3(4H)-one]	–	–
8.56	38	115	CCn1cnc2c(-c3ccc(F)c(-c4cc5oc(=O)n(CCOC)c5cc4OC)c3)cnnc21 [Example 28, 6-(5-(7-Ethyl-7H-imidazo[4,5-c]pyridazin-4-yl)-2-fluorophenyl)-5-methoxy-3-(2-methoxyethyl)benzo[d]oxazol-2(3H)-one]	–	–
5.71	70	124	CCn1cnc2c(-c3ccc(F)c(-c4cc5oc(=O)n(CC6CC6)c5cc4OC)c3)cnnc21 [Example 34, 3-(Cyclopropylmethyl)-6-(5-(7-ethyl-7H-imidazo[4,5-c]pyridazin-4-yl)-2-fluorophenyl)-5-methoxybenzo[d]oxazol-2(3H)-one]	–	–
